Assay results from ChEMBL document CHEMBL4808217, “Design, Synthesis, and Characterization of 4-Aminoquinazolines as Potent Inhibitors of the G Protein-Coupled Receptor Kinase 6 (GRK6) for the Treatment of Multiple Myeloma” (J Med Chem, 2021).

Molecular target: G protein-coupled receptor kinase 6 (Homo sapiens, UniProt P43250)
Assay: Inhibition of recombinant full-length human GRK6 using casein as substrate at 1 uM measured after 80 mins in presence of [gamma33P]ATP by radiometric scintillation counting method relative to control

G protein-coupled receptor kinase 6, sequence (P43250 whole entry, looked up): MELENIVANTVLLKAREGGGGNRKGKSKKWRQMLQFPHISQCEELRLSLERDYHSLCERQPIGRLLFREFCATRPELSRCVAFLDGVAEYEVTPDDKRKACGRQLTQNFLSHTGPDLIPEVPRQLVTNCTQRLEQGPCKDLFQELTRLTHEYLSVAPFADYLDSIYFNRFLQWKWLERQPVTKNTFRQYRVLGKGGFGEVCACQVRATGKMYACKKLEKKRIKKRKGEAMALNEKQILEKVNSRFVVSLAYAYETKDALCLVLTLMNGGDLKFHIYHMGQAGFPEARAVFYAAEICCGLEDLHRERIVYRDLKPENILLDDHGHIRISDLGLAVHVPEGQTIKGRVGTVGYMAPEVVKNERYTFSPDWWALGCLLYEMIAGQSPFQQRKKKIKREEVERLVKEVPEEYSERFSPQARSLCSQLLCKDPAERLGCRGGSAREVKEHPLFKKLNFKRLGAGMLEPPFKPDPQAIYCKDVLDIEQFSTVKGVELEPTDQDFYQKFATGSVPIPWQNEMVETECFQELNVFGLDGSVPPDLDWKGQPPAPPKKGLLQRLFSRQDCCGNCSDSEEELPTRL

inhibition | Compound
79% | Cc1cc(Nc2nc(N[C@@H](C)c3ccc(F)cc3)c(C#N)cc2F)n[nH]1
95% | N#CCc1ccc(Nc2nc(Nc3cc(C4CCC4)[nH]n3)c3ccccc3n2)cc1
